These are literature values, as cited in patent US20180284402A1, “TOPICAL ANALGESIC PAIN RELIEF FORMULATIONS, MANUFACTURE AND METHODS OF USE THEREOF” (priority 2016, published 2018).

Each structure is given as a SMILES string. Read-outs that look alike come from different tables or passages of the source.

Series [1] concerns the target T1, hTRPA1 (Homo sapiens, UniProt O75762).
The target of series [2] is hTRPV1 (Homo sapiens, UniProt Q8NER1). Conditions: Takaishi 2012.
In series [3] the target is T2, hTRPV2 (Homo sapiens, UniProt Q9Y5S1).
T2 sequence (Q9Y5S1 1-764): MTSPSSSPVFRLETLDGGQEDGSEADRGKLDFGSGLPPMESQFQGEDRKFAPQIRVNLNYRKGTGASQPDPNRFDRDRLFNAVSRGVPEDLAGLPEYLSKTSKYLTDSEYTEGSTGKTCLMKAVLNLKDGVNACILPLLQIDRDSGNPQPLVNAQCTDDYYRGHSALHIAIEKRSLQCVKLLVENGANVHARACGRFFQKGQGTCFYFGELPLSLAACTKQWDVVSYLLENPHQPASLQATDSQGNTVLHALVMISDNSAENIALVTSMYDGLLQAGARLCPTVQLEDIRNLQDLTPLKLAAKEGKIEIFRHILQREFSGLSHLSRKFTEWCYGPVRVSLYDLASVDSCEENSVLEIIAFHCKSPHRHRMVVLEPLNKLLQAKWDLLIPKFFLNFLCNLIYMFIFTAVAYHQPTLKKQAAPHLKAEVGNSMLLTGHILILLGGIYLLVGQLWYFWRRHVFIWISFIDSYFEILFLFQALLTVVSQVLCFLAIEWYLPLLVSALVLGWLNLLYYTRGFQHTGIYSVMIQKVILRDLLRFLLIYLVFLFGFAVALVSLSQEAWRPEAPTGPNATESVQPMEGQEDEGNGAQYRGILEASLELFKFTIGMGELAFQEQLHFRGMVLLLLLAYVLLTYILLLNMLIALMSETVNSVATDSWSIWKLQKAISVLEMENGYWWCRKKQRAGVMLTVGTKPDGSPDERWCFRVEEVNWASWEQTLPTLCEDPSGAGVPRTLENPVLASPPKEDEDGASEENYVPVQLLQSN
The settings on record: Takaishi 2012.

Series [4] deals with human TRPM8 (hTRPM8) (Homo sapiens, UniProt Q7Z2W7). The settings on record: Takaishi 2012.
Sequence of human TRPM8 (hTRPM8) (Q7Z2W7 whole entry): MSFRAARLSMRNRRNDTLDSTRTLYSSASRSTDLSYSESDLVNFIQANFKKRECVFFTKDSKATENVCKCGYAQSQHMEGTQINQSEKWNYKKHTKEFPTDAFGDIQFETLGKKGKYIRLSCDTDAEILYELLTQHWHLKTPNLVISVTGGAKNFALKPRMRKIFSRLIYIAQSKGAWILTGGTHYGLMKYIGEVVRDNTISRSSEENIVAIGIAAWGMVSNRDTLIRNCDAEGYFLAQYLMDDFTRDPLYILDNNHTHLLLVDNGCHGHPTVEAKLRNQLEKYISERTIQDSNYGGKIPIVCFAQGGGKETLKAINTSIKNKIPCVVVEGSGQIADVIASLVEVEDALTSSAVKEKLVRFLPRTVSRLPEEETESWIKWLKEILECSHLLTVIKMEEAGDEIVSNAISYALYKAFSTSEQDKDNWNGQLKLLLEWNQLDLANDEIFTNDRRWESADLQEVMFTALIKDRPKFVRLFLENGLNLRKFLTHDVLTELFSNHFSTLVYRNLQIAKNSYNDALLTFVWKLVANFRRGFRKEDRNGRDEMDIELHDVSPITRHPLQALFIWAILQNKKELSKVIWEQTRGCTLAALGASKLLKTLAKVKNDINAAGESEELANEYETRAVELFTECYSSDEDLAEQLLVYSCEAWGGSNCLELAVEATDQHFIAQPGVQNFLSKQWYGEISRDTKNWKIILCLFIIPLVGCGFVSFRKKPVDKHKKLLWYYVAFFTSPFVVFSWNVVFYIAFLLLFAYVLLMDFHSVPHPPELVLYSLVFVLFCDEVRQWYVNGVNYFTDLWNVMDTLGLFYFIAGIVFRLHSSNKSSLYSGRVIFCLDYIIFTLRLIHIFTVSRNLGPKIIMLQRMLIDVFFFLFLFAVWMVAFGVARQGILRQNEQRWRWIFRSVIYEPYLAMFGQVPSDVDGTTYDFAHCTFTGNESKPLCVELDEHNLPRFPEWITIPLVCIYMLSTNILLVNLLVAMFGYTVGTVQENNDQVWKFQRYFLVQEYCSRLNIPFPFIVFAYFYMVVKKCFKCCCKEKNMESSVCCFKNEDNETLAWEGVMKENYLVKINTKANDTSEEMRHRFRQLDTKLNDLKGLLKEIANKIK
The target of series [5] is T1, hTRPA1. The settings on record: compound at 1 mM; for inhibition of hTRPA1 activation by allyl isothiocyanate (mustard oil): allyl isothiocyanate at 10 uM; for inhibition of hTRPA1 activation by menthol: menthol at 1 mM.
The subject of series [6] is TRPV1. Conditions: Morales-Lazaro 2016.
In series [7] the test system is pain and itch responses. Conditions: mice.

T1 sequence (O75762 whole entry): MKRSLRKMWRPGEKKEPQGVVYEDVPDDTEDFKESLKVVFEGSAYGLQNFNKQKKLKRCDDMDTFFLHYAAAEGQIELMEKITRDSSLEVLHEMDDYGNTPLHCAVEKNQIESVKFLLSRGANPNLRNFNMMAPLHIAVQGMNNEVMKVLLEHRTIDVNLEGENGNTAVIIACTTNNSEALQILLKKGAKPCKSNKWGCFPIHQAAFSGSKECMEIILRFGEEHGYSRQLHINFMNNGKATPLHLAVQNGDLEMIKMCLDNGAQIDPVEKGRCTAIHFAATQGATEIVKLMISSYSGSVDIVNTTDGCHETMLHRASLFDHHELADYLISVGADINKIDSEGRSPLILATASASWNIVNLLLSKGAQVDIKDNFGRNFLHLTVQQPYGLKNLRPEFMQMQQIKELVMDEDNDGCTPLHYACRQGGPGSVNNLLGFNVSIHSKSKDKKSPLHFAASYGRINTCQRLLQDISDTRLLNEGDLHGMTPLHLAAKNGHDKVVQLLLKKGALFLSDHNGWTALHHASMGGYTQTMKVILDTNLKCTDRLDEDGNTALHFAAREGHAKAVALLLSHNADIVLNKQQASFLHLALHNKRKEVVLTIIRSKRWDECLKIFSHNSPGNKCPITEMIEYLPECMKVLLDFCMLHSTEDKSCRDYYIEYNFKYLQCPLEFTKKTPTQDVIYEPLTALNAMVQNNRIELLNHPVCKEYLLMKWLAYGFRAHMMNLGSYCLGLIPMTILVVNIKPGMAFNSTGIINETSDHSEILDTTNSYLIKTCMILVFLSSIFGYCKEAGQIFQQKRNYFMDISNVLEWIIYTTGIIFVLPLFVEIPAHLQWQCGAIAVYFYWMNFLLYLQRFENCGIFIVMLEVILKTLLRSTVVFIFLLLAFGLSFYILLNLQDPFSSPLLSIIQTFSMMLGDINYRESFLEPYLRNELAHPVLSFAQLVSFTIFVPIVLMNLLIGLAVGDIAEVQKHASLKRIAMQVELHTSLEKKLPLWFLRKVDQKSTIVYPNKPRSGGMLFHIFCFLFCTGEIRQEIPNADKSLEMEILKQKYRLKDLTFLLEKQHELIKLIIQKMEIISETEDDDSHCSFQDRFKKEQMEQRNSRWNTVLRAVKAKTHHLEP
Sequence of hTRPV1 (Q8NER1 whole entry): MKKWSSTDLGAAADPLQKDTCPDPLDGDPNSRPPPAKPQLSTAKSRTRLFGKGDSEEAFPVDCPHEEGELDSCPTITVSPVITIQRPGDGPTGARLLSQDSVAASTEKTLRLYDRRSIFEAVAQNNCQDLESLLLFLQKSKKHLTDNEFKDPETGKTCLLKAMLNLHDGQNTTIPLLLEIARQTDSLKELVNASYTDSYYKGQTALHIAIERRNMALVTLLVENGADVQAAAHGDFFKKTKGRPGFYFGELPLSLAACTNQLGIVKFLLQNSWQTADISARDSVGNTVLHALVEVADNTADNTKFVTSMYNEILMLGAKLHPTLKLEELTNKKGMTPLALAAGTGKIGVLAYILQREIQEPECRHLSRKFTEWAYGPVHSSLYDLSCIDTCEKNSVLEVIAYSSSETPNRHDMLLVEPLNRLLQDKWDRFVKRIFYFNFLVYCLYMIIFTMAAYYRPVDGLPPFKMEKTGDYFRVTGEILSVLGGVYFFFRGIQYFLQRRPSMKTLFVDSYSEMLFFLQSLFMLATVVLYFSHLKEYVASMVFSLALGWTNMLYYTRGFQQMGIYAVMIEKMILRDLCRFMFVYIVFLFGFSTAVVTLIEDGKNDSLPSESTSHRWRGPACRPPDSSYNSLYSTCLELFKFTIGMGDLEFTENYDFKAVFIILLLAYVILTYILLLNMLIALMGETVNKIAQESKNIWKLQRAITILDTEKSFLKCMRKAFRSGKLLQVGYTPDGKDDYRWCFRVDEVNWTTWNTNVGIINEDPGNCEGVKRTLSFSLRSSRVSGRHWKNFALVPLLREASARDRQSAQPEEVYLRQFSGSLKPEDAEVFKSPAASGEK

On to `CC12CCC(CC1)C(C)(C)O2` [1,8-cineole], for which the “activation of hTRPA1” value is listed as “without activating” in series [1] (Takaishi 2012) and “did not activate” in series [1] (Takaishi 2014). Moreover, the “activation of hTRPV1” value in series [2] is on record as “did not activate”. In addition, the “activation of hTRPV2” value in series [3] was “did not activate”. Moreover, the “activation of human TRPM8 (hTRPM8)” value in series [4] is “activates”.
Regarding `CC1(C)[C@@H]2CC[C@@]1(C)[C@](C)(O)C2` [2-methylosoborneol], the “activation of hTRPA1” value in series [1] (Takaishi 2014) is listed as “did not activate”. Also, in series [5], the “inhibition of hTRPA1 activation by allyl isothiocyanate (mustard oil)” value (shortened to “inhibition of hTRPA1 activation … (mustard oil)”) is “completely inhibited” and the “inhibition of hTRPA1 activation by menthol” value (“inhibition … by menthol” for short) is reported as “completely inhibited”.
For the molecule `CC1(C)C2CCC1(C)C(O)C2` (stereo not drawn) [borneol], the “activation of hTRPA1” value in series [1] (Takaishi 2014) is “did not activate”. Further, in series [5], the “inhibition of hTRPA1 activation … (mustard oil)” value is on record as “completely inhibited” and the “inhibition … by menthol” value is listed as “completely inhibited”.
Consider `CC12CCC(CC1=O)C2(C)C` (stereo not drawn) [camphor], for which the “activation of hTRPA1” value in series [1] (Takaishi 2014) is given as “did not activate”.
`CC12CCC(C1)C(C)(C)C2O` (stereo not drawn) [fenchyl alcohol]: the “activation of hTRPA1” value in series [1] (Takaishi 2014) was “did not activate”. In addition, in series [5], the “inhibition of hTRPA1 activation … (mustard oil)” value is reported as “completely inhibited” and the “inhibition … by menthol” value is “completely inhibited”.
Take `O=C1CC2CC[C@H]1C2` [norcamphor]: the “activation of hTRPA1” value in series [1] (Takaishi 2014) is listed as “did not activate”.
Turning to `CCCCCCCC/C=C\CCCCCCCC(=O)O` [oleic acid], the TRPV1 activity entry in series [6] was “inhibited”. Also, the “pain and itch responses” value in series [7] is “inhibited”.
